Where “and” joins values, the source holds several entries; their conditions need not be identical. Identical values can stand only once. Like-named read-outs stand apart in the source and are kept apart here.
Tests used:
ABCB1 = ABCB1 (Homo sapiens, UniProt P08183); test: JC-1 efflux inhibition dose response, flow cytometry, Jurkat-DNR cells; settings: for IC50: Jurkat-DNR cells over-expressing ABCB1, averages of two to four replicates
Procedure: (§1) The HyperCyt® high throughput flow cytometry platform (IntelliCyt™, Albuquerque, N. Mex.) was used to sequentially sample cells from 384-well microplates (2 μL/sample) for flow cytometer presentation at a rate of 40 samples per minute.^62-63 Flow cytometric analysis was performed on a CyAn™ flow cytometer (Beckman-Coulter, Fullerton, Calif.). The resulting time-gated data files were analyzed with HyperView® software to determine compound activity in each well. Inhibition response curves were fitted by Prism® software (GraphPad Software, Inc., San Diego, Calif.) using nonlinear least-squares regression in a sigmoidal dose response model with variable slope, also known as the four-parameter logistic equation. This type of time-gated flow cytometric data analysis was described in detail for a previous ABC transporter screen from our group.^56
The assay provider's ABCB1 over-expressing Jurkat-DNR cell line is used for confirmatory follow up instead of the CCRF-Adr cells. Each cell line (Jurkat-DNR and Ig-MXP3) is run separately against all compounds (no differential cell staining) in dose response. The assay is conducted in 384-well format in a total volume of 15.1 μL. Cells and reagents are added sequentially as follows: 1) PBS buffer (5 μL/well); 2) test compound (100 nL/well); 3) drug-resistant cells (10 μL/well) pre-stained with the JC-1 substrate at 1 μM. Final in-well concentrations of test compound range from 50 μM to 69 nM over an 18 point dose response and the cell concentration is 1×10^6 cells/mL. Nicardipine (50 μM) is added to each plate as a pan-inhibition positive control. The plate is rotated end-over-end at 4 RPM and 25° C. for 30 minutes and then cell samples are analyzed and flow cytometric data of light scatter and fluorescence emission at 530+/−20 nm (488 nm excitation, FL1) are collected.
(§2) Each cell line (Jurkat-DNR and Ig-MXP3) was run separately against all compounds (no differential cell staining) in dose-response. The protocol differed from the single point screen as describe here. Cells and reagents were added sequentially as follows: 1) PBS buffer (5 μL per well); 2) test compound (100 nL per well); 3) drug-resistant cells (10 μL, per well) pre-exposed to the JC-1 substrate at 1 μM just prior to the well addition. Final in-well concentrations of test compound ranged from 50 μM to 69 nM over an 18 point dose-response and the cell concentration was 1×10^6 cells mL^−1.

ABCB1 / ABCG2 = molecular target: T1, ABCB1 / ABCG2 (Homo sapiens, UniProt Q9UNQ0); test: JC-1 efflux inhibition dose response, flow cytometry, Ig-MXP3 cells; settings: human, probe JC-1 (1 µM), ~Fold G2 Selective (B1/G2), quotient of average ABCB1 IC50 and average ABCG2 IC50, efflux assay
T1 sequence (Q9UNQ0 1-655): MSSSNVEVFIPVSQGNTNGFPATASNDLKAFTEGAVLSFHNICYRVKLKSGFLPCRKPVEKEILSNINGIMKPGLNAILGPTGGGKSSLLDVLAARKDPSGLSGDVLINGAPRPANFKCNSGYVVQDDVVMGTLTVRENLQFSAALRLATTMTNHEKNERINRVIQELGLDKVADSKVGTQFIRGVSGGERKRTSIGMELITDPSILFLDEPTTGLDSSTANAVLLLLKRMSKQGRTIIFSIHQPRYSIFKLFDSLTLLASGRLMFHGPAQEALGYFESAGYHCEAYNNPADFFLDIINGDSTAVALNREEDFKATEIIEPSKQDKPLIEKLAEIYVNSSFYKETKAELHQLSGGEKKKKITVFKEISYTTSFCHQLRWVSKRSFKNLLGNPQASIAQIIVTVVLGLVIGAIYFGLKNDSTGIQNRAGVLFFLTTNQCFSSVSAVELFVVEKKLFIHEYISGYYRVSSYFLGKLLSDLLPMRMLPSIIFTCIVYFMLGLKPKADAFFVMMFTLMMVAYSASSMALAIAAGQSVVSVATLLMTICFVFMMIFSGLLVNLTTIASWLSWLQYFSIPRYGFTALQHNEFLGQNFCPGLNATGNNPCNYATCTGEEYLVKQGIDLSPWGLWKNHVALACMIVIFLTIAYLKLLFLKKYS
Procedure: as §1
(§3) The assay provider's ABCB1 over-expressing Jurkat-DNR cell line is used for confirmatory follow up instead of the CCRF-Adr cells. Each cell line (Jurkat-DNR and Ig-MXP3) is run separately against all compounds (no differential cell staining) in dose response. The assay is conducted in 384-well format in a total volume of 15.1 μL. Cells and reagents are added sequentially as follows: 1) PBS buffer (5 μL/well); 2) test compound (100 nL/well); 3) drug-resistant cells (10 μL/well) pre-stained with the JC-1 substrate at 1 μM. […] Nicardipine (50 μM) is added to each plate as a pan-inhibition positive control.
as §2, with “addition.” for “addition. Final in-well concentrations of test compound ranged from 50 μM to 69 nM over an 18 point dose-response and the cell concentration was 1×10^6 cells mL^−1.”

ABCG2 = molecular target: T2, ABCG2 (Homo sapiens, UniProt Q9UNQ0); test: as above; settings: for ~Fold G2 Selective (B1/G2): quotient of average ABCB1 IC50 and average ABCG2 IC50, efflux assay
T2 sequence (Q9UNQ0 1-655): T1 sequence (Q9UNQ0 1-655)
Procedure: as §1, §3
as §2, with “addition.” for “addition. Final in-well concentrations of test compound ranged from 50 μM to 69 nM over an 18 point dose-response and the cell concentration was 1×10^6 cells mL^−1.”

[1] = tested on: ABCB1 over-expressing Jurkat-DNR cells; test: Chemoreversal assay: potentiation of daunorubicin (DNR) killing; format: cell-based
[2] = tested on: ABCG2 over-expressing Ig-MXP3 cells; test: Chemoreversal assay: potentiation of mitoxantrone (MTX) killing; format: cell-based; settings: Ig-MXP3 cells
Jurkat-DNR cells = test: Direct cytotoxicity (Toxic Dose 50) without chemotherapeutic
Procedure: Cells (ABCB1, Jurkat-DNR or ABCG2 Ig-MXP3) are incubated with the test compound (3 order of magnitude concentration range) over a 3-day and 7-day period in the presence of the inhibitor and chemotherapeutic (ABCB1, DNR or ABCG2 MTX), such that a cell concentration of at least 1×10^5 cells/mL is maintained. Cell viability is determined by trypan blue staining and enumeration under light microscopy. […] A chemoreversal index (Chemoreversal 50, CR50) is determined from the viability assessment. Using a similar approach, a direct cytotoxicity index (Toxic Dose 50, TD50) is determined by assessment of cell death of cells grown in media alone.
Cells (ABCB1, Jurkat-DNR or ABCG2 Ig-MXP3) were incubated with the test compound in a 3 order of magnitude concentration range over three and seven day periods in the presence of the inhibitor and chemotherapeutic (ABCB1, 100 nM DNR or ABCG2 30 nM MTX), such that a cell concentration of at least 1×10^5 cells mL^−1 was maintained. Cell viability was determined by trypan blue staining and enumeration under light microscopy. […] A chemoreversal index (Chemoreversal 50, CR50) was determined from the viability assessment. Using a similar approach, a direct cytotoxicity index (Toxic Dose 50, TD50) was determined by assessment of cell death of cells grown in media alone.

Ig-MXP3 cells = test: as above; format: cell-based
[3] = IC50 ABCB1 (efflux inhibition of JC-1 substrate)
[4] = constant 100 nM DNR, varied inhibitor dose, read-out: CR50 ABCB1
[5] = constant 30 nM MTX, varied inhibitor dose, read-out: CR50 ABCG2
[6] = Jurkat-DNR cells, inhibitor without chemotherapeutic
[7] = Ig-MXP3 cells, inhibitor without chemotherapeutic
[8] = read-out: IC50 ABCB1 (efflux inhibition of JC-1 substrate)
[9] = read-out: IC50 ABCG2 (efflux inhibition of JC-1 substrate), Ig-MXP3 cells over-expressing ABCG2, averages of two to four replicates

Sequence of ABCB1 (P08183 whole entry): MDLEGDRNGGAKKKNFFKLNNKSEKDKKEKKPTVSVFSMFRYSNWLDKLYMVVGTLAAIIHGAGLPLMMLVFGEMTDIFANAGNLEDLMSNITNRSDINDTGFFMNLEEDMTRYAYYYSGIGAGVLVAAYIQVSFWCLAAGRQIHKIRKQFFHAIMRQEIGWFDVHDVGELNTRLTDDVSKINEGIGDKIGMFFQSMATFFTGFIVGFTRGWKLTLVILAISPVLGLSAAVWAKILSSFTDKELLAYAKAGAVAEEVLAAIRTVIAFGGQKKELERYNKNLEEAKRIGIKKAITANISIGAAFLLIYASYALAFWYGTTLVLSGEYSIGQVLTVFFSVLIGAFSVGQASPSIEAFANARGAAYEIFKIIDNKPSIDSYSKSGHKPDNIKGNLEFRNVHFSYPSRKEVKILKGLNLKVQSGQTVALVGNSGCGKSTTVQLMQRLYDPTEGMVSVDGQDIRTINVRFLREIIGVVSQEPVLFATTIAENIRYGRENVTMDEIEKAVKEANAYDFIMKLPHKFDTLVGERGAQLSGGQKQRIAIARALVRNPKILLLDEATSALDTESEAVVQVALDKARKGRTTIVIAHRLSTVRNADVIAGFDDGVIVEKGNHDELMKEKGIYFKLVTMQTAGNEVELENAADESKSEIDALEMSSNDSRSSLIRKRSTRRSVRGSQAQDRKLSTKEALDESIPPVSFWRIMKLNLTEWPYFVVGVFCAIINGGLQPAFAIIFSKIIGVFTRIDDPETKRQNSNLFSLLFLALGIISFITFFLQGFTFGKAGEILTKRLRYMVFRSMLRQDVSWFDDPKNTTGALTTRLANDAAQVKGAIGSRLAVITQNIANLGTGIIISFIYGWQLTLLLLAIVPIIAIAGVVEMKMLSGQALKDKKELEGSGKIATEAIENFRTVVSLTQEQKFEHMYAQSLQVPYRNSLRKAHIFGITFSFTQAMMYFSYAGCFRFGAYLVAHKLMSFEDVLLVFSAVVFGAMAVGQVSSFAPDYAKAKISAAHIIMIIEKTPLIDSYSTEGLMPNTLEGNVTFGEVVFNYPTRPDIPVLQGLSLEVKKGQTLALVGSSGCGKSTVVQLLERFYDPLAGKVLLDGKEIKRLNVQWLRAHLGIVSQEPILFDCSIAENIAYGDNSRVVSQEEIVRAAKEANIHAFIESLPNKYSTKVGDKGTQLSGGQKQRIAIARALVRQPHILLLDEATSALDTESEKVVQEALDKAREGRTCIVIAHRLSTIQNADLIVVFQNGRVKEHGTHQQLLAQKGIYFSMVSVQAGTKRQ

Structure (SMILES) | IC50 (ABCB1; [3]) | selectivity ratio at 30 min (ABCB1 / ABCG2) | IC50 (ABCG2) | EC50 [1, 4] | EC50 [2, 5] | TD50 ABCB1 (Jurkat-DNR cells; [6]) | TD50 ABCG2 (Ig-MXP3 cells; [7]) | IC50 (ABCB1; [8]) | also measured
COc1ccc(-c2cc3nc(-c4ccco4)cc(N4CCN(C(=O)c5ccoc5)CC4)n3n2)cc1 [Compound 57] | 3.45 µM | 3.9 | 890 nM | 5770 nM | 760 nM | >100 µM | >100 µM |  | 
O=C(c1ccncc1)N1CCN(c2cc(-c3ccccc3)nc3cc(-c4cccc(Cl)c4)nn23)CC1 [Compound 21] | 1.16 ± 0.3 µM | 1.1 | 1030 ± 230 nM | 250 nM | 150 nM | 10.90 µM | 28.30 µM |  | 
O=C(c1ccoc1)N1CCN(c2cc(-c3cccnc3)nc3cc(-c4cccc(Cl)c4)nn23)CC1 [Compound 30] | 0.77 ± 0.28 µM | 2.9 | 270 ± 120 nM | 200 nM | 20 nM | 5.33 µM | 5.77 µM |  | 
CC(=O)N1CCN(c2cc(-c3ccco3)nc3cc(-c4ccccc4)nn23)CC1 [Compound 74] | 3.64 µM | 7 | 520 nM | 190 nM | 930 nM | 10.10 µM | >100 µM |  | 
O=C(c1ccoc1)N1CCN(c2cc(-c3ccoc3)nc3cc(-c4ccccc4)nn23)CC1 [Compound 61] | 1.6 µM | 1.1 | 1400 nM | 420 nM | 760 nM | 7.33 µM | 18.30 µM |  | 
O=C(c1ccco1)N1CCN(c2cc(-c3ccccc3)nc3cc(-c4cccc(Cl)c4)nn23)CC1 [Compound 8] |  |  |  | 250 nM | 140 nM |  |  | 6.18 µM | ~Fold G2 Selective (B1/G2) (ABCG2): 6.4 fold; IC50 (ABCG2; [9]): 960 nM; EC50 ([1]; constant 100 nM DNR, varied inhibitor dose, listed as SID 85240370, read-out: CR50 ABCB1): 700 nM
COc1cc2c(cc1OC)CN(CCc1ccc(NC(=O)c3cccc(/C=c4\[nH]c(=O)/c(=C/c5ccccc5)n(C)c4=O)c3)cc1)CC2 [Compound 2, reference compound] |  |  |  |  |  |  |  | 0.61 ± 0.43 µM | IC50 (ABCB1; read-out: IC50 ABCB1 (efflux inhibition of JC-1 substrate), listed as XR9051): 0.6 µM; IC50 (ABCG2; [9]): 2270 ± 2050 nM; IC50 (ABCG2; read-out: IC50 ABCG2 (efflux inhibition of JC-1 substrate), Ig-MXP3 cells over-expressing ABCG2, averages of two to four replicates, listed as XR9051): 2300 nM; EC50 ([1]; values in nM, read-out: chemoreversal (CR50) ABCB1): 10 nM; EC50 ([2]; values in nM, listed as XR9051, read-out: chemoreversal (CR50) ABCG2): 700 nM; EC50 ([2]; values in nM, read-out: chemoreversal (CR50) ABCG2): 650 nM; TD50 ABCB1 (Jurkat-DNR cells): 1.97 µM; TD50 ABCG2 (Ig-MXP3 cells): 21.40 µM
Cc1nc2cc(-c3cccc(Cl)c3)nn2c(N2CCN(C(=O)c3ccco3)CC2)c1C [Compound 9] | 8.4 ± 0.7 µM | 3.2 | 2650 ± 1070 nM |  | 170 nM | >100 µM | 47.40 µM |  | 
O=C(NCCCN1CCOCC1)c1cnn2c(-c3ccccc3)cc(-c3ccccc3)nc12 [Compound 6, reference compound] |  |  |  | 220 nM | 3610 nM |  |  |  | IC50 (ABCB1; read-out: IC50 ABCB1 (efflux inhibition of JC-1 substrate), listed as reversan): 4.4 µM and 4.41 µM; IC50 (ABCG2; read-out: IC50 ABCG2 (efflux inhibition of JC-1 substrate), Ig-MXP3 cells over-expressing ABCG2, averages of two to four replicates, listed as reversan): 800 nM and 840 nM; EC50 ([1]; constant 100 nM DNR, varied inhibitor dose, listed as reversan, read-out: CR50 ABCB1): 2200 nM; EC50 ([2]; constant 30 nM MTX, varied inhibitor dose, listed as reversan, read-out: CR50 ABCG2): 3600 nM; TD50 ABCB1 (Jurkat-DNR cells): 7.04 µM; TD50 ABCG2 (Ig-MXP3 cells): >100 µM
COc1cccc(-c2cc3nc(-c4ccco4)cc(N4CCN(C(=O)c5ccoc5)CC4)n3n2)c1 [Compound 56] |  |  |  | 470 nM | 1000 nM |  |  | 7.4 µM | ~Fold G2 Selective (B1/G2) (ABCG2): 3.3 fold; IC50 (ABCG2; [9]): 2260 nM; TD50 ABCB1 (Jurkat-DNR cells): 5.52 µM; TD50 ABCG2 (Ig-MXP3 cells): >100 µM
CN(C)C(=O)CCSC(SCCC(=O)O)c1cccc(/C=C/c2ccc3ccc(Cl)cc3n2)c1 (stereo not shown) [Compound 5, reference compound] | > 50 µM |  | > 50000 nM | 20400 nM | 57400 nM | 20.40 µM | 57.40 µM | > 50 µM | efflux inhibition activity ABCB1 (ABCB1; JC-1 efflux, Jurkat-DNR): didn't observe any inhibition; efflux inhibition activity ABCG2 (ABCG2; JC-1 efflux, Ig-MXP3): didn't observe any inhibition
COc1ccc2c3c([nH]c2c1)[C@H](CC(C)C)N1C(=O)[C@H](CCC(=O)OC(C)(C)C)NC(=O)[C@@H]1C3 [Compound 4, reference compound] |  |  |  |  |  | 2.84 µM | 20.00 µM |  | 

Source: patent publication US9056111B1, “Selective efflux inhibitors and related pharmaceutical compositions and methods of treatment” (STC.UNM, priority 2011, dated 2015)
